# Results reported in patent US10280170B2, “Substituted 4,5,6,7-tetrahydro-pyrazolo[1,5-a]pyrazine derivatives and 5,6,7,8-tetrahydro-4H-pyrazolo[1,5-a][1,4]diazepine derivatives as Ros1 inhibitors” (Janssen Pharmaceutica NV, priority 2014, dated 2019).
# Like-named read-outs stand apart in the source and are kept apart here.
# Assays:
# Ros1 enzyme = target: T1, Ros1 enzyme (Homo sapiens, UniProt P08922); experiment: Ros1 enzymatic assay; type: biochemical; conditions: Ros1 enzymatic assay; read-out: ROS1 pIC50 (converted)
# T1 construct: 0.5 μg/ml Ros1 enzyme
# T1 sequence (P08922 28-2347): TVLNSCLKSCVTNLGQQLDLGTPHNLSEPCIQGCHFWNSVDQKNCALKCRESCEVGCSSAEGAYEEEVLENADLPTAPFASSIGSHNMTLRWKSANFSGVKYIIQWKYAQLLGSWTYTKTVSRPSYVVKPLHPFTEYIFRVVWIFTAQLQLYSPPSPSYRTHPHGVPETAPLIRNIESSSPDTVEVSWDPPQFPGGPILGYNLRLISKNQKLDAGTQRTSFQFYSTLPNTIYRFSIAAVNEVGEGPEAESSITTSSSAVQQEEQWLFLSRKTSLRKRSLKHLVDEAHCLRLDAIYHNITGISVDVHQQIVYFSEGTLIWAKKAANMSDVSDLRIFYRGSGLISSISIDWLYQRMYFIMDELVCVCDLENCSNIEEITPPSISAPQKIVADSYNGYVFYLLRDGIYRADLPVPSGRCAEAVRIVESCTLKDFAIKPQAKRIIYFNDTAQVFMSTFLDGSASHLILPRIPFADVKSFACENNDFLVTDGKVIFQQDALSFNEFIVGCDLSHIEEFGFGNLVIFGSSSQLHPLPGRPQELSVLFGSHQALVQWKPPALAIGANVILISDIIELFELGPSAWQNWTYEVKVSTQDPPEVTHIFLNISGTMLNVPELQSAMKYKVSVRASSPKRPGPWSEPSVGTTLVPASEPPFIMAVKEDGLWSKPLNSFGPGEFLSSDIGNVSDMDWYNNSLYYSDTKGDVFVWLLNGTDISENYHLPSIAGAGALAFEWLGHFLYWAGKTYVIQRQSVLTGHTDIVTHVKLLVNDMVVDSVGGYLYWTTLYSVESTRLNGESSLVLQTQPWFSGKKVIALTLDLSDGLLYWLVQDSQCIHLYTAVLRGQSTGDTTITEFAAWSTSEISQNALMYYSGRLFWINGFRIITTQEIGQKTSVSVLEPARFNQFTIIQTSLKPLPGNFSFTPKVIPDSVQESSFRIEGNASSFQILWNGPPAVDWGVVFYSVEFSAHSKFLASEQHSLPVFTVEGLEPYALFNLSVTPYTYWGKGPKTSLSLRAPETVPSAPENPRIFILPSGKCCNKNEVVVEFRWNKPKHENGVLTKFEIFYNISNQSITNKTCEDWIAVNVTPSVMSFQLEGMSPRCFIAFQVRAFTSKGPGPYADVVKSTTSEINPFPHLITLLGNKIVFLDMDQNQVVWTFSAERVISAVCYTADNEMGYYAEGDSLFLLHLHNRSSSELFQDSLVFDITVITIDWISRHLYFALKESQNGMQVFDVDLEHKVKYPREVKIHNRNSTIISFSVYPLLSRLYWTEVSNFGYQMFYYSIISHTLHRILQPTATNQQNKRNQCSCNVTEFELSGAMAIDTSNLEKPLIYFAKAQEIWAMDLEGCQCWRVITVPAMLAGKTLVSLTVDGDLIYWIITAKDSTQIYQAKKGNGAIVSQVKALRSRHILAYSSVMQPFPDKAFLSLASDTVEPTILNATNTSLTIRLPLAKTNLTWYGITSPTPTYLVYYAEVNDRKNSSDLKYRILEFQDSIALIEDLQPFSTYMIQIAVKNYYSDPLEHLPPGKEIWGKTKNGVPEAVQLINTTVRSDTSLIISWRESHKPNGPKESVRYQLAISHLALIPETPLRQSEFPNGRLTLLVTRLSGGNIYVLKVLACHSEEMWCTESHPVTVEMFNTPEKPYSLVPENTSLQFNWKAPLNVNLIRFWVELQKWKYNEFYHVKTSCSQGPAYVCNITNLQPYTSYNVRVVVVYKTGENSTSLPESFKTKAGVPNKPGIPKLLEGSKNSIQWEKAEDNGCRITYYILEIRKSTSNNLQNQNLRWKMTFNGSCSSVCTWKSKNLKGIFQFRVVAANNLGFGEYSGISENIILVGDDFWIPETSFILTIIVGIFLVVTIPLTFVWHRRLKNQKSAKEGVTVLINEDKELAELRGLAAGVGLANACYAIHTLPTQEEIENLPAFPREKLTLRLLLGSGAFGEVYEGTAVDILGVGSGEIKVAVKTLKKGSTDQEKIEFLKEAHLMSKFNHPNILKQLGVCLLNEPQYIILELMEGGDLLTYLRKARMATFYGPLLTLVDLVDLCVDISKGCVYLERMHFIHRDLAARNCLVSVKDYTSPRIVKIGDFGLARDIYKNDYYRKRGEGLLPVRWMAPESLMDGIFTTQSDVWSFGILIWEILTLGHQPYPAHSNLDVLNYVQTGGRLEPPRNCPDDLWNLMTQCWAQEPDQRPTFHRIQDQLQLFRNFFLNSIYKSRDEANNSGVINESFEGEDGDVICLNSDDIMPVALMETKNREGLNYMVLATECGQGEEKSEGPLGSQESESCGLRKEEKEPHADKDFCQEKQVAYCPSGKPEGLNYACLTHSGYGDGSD
# Procedure: Compounds were spotted onto white 384-well Proxiplate plus plates (Perkin Elmer) to which 5 μl of enzyme mix (0.5 μg/ml Ros1 enzyme, 50 mM Tris-HCl pH7.5, 1 mM EGTA, 10 mM MgCl2, 0.01% Tween-20) and 5 μl of substrate mix (6 μg/ml IRS-Tide [American Peptide Company], 20 μM ATP, 13.33 μCi/ml ATP (adenosine 5′-triphosphate) P^33, 50 mM Tris-HCl pH7.5, 1 mM EGTA (ethylene glycol-bis(2-aminoethylether)-N,N,N′,N′-tetraacetic acid), 10 mM MgCl2, 0.01% Tween-20) were added. After incubation for 120 minutes at room temperature, 10 μl of stop reaction buffer (5 mM EDTA, 50 μM ATP, 0.1% BSA (bovine serum albumin), 0.1% Triton X-100, 50 mM Tris-HCl pH7.5, 1 mM EGTA, 10 mM MgCl2, 0.01% Tween-20) containing 2 mg/ml streptavidin coupled polystyrene imaging beads (Amersham Biosciences) was added and incubated for 15 minutes at room temperature. Plates were centrifuged for 3 minutes at 1500 rpm and signals detected in a LEADseeker imaging system (GE).
# [1] = target: T2, Ba/F3 cells containing Ros1 wild-type protein (Homo sapiens, UniProt P08922, cells depend on it, form not given); experiment: Ba/F3-Ros1 cell proliferation assay, wild-type Ros1; type: cell-based, murine; conditions: without IL-3
# T2 construct: The background only speaks of 'a number of different unrelated proteins' and names SLC34A2-ROS1 for HCC78 cells
# T2 sequence (P08922 whole entry, stated change not applied): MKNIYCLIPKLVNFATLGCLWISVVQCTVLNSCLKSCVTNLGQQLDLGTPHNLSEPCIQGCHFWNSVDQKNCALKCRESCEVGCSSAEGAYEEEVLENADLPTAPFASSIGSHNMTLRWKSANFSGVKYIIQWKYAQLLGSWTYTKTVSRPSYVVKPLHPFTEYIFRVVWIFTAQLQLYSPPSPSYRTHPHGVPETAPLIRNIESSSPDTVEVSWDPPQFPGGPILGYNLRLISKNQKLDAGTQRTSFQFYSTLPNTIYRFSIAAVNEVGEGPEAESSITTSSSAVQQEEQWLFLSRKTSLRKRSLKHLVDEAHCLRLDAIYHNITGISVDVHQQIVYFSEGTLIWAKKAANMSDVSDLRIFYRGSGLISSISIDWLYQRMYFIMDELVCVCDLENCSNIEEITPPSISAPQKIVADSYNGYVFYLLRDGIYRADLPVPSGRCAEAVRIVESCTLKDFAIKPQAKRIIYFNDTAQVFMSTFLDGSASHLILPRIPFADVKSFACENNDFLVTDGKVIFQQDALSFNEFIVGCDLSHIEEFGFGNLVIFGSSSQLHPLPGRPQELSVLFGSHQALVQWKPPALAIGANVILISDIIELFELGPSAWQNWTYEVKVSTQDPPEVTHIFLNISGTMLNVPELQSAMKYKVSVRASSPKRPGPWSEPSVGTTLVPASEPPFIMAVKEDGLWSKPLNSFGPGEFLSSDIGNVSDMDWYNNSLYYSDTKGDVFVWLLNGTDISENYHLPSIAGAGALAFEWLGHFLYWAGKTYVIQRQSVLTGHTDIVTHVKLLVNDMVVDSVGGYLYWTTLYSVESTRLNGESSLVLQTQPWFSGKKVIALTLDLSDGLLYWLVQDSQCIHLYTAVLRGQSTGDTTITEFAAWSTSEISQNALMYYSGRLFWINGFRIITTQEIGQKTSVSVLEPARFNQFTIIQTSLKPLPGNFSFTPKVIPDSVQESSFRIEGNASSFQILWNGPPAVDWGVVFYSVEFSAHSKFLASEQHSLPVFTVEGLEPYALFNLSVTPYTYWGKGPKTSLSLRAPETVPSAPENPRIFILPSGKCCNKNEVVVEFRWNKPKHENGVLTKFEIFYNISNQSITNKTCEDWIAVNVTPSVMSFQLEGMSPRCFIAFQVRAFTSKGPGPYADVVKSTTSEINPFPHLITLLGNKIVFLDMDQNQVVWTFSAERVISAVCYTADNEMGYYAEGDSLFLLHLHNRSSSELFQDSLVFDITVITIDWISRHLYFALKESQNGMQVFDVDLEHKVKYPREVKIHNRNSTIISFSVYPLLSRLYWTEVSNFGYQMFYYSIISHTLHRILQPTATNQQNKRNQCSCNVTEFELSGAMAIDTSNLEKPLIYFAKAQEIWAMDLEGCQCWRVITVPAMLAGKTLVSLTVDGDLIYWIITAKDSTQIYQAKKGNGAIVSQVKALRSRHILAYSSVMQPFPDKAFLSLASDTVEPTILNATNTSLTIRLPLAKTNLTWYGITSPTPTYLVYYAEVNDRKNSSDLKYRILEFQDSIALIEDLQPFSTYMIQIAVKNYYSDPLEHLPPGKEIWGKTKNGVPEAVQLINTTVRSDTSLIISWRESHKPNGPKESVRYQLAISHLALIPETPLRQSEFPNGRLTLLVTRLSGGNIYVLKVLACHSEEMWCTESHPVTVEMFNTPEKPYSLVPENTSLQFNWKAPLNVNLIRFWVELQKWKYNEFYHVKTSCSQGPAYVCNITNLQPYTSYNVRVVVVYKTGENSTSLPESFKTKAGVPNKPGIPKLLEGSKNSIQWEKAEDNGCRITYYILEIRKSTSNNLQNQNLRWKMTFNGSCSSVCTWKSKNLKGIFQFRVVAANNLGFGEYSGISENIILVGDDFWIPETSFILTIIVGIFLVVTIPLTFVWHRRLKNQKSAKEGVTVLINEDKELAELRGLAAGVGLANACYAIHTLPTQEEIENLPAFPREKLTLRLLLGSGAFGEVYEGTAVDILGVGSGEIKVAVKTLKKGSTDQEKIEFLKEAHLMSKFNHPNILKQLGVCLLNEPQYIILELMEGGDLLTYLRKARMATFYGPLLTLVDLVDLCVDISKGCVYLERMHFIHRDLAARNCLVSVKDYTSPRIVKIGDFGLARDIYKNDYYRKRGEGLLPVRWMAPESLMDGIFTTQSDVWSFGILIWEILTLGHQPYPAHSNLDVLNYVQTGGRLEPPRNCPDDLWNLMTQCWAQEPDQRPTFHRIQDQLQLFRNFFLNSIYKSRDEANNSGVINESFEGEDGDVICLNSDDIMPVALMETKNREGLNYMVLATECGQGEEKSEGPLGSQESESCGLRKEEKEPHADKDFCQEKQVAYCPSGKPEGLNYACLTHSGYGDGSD
# Procedure: (§1) Ba/F3-Ros1 Cell Proliferation Assay
# (§2) This assay was carried out with Ba/F3 cells containing three different versions of Ros1: the wild-type protein, protein with a mutation at the gatekeeper residue (L2026M), and protein with a mutation identified in a tumor from a patient that became resistant to crizotinib (Xalkori®) treatment (G2032R). Compounds were solubilized in 100% DMSO (dimethyl sulfoxide) and sprayed into polystyrene, tissue culture treated 384-well plates. A 50 μl volume of cell culture medium (phenol red free RPMI-1640, 10% FBS (fetal bovine serum), 2 mM L-Glutamine) containing 20000 Ba/F3-Ros1 cells was added to each well and the plates were placed in an incubator at 37° C. and 5% CO2. After 24 hours, 10 μl of Alamar Blue solution (0.5 mM K3Fe(CN)6, 0.5 mM K4Fe(CN)6, 0.15 mM Resazurin and 100 mM Phosphate Buffer) was added to the wells, incubated for 4 hours at 37° C. and 5% CO2 before RFU's (Relative Fluorescence Units) (ex. 540 nm., em. 590 nm.) were measured in a fluorescence plate reader.
# [2] = target: Ba/F3 cells containing Ros1 with a mutation at the gatekeeper residue (L2026M) (Homo sapiens, UniProt P08922, L2026M, cells depend on it, form not given); experiment: Ba/F3-Ros1 cell proliferation assay, L2026M gatekeeper mutant; type: cell-based, murine; conditions: without IL-3
# Ba/F3 cells containing Ros1 with a mutation at the gatekeeper residue (L2026M), sequence (P08922 whole entry L2026M, form open): as the sequence (P08922 whole entry, stated change not applied) above, with L2026M counted along it
# Procedure: as §1, §2
# [3] = system: Ba/F3 cells containing Ros1 wild-type protein + IL-3; experiment: Ba/F3-Ros1 cell proliferation counter-screen, wild-type protein in the presence of 10 ng/ml murine IL-3; type: cell-based; conditions: Mus musculus, BaF3, 24 h, read-out: BaF3-ROS1 + IL3 pIC50 (converted)
# Procedure: as §2
# As a counter-screen the same experiment was performed for the wild-type protein in the presence of 10 ng/ml murine IL-3.
# [4] = system: HCC78 non-small cell lung cancer cells; experiment: HCC78 cell proliferation assay; type: cell-based; conditions: Homo sapiens, HCC78, 96 h, read-out: HCC-78 PROL pEC50 (converted)
# Procedure: HCC78 Cell Proliferation Assay
# Approximately 1000 HCC78 non-small cell lung cancer cells in 180 μl of cell culture medium (RPMI-1640, 10% FBS, 2 mM L-Glutamine, 10 mM Hepes, 1 mM sodium pyruvate, 4.5 g/L glucose, 1.5 g/L sodium bicarbonate, 25 μg/ml Gentamycin) were seeded in each well of a 96-well polystyrene, tissue-culture treated plate and incubated at 37° C. and 5% CO2. After 24 hours, compounds were diluted in cell culture medium from which 20 μl was added to the wells containing cells and incubated for 4 days at 37° C. and 5% CO2. A 5 mg/ml solution of the tetrazolium dye MTT was prepared in PBS (phosphate-buffered saline) and 25 μl was added to each well. After 2 hours the medium was removed and replaced by 125 μL of 4/1 DMSO/glycine buffer (0.1M glycine, 0.1M NaCl, pH 10.5) before absorbance was determined at 538 nm.
# [5] = counter-screen, wild-type, 10 ng/ml murine IL-3
Compound,IC50 (Ros1 enzyme) [nM],BaF3-ROS1-IL3 pIC50 [1],Ba/F3 Ros1 L2026M (-IL-3) pIC50 [2],"CC50 [3, 5] [nM]","EC50 ([4]; HCC78 cells, 4 days, MTT) [nM]",CC50 [3] [nM],EC50 [4] [nM]
Fc1cc(OCc2ccc(C3CC3)cc2)ccc1-c1c(-c2ccncc2)nn2c1CNCC2 [Compound 184],100,7.3,6.6,> 10000,251,,
O=C1c2c(-c3ccc(OCc4ccc(C5CC5)nc4)cc3F)c(-c3ccncc3)nn2CCN1CC(O)CO (centres unmarked) [Compound 208],63.1,6.8,6.3,> 10000,398,,
CNC(=O)CN1CCn2nc(-c3ccncn3)c(-c3ccc(OCc4ccc(C(C)C)cc4)cc3)c2C1=O [Compound 164],158,7.0,6.7,> 10000,794,,
CNC(=O)CN1CCn2nc(-c3ccncc3)c(-c3ccc(OCc4ccc(C(C)C)cc4)cc3F)c2C1 [Compound 209],63.1,7.5,7.5,,,5010,501
Cc1cc(-c2c(-c3ccncc3)nn3c2C(=O)N(CCO)CC3)ccc1OCc1ccc(C(C)C)cc1 [Compound 31],1580,6.3,5.9,,,> 10000,6310
O=C1c2c(-c3ccc(OCc4ccc(C5CC5)nc4)cc3)c(-c3ccncc3)nn2CCN1CC(O)CO (centres unmarked) [Compound 140],251,6.4,5.8,> 10000,2000,,
CC(C)c1ccc(COc2ccc(-c3c(-c4ccncn4)nn4c3C(=O)N(CCOCCO)CC4)cc2)cc1 [Compound 162],79.4,7.2,7.1,,,> 10000,398
O=C1c2c(-c3ccc(OCc4ccc(C5CC5)nc4)cc3F)c(-c3ccncc3)nn2CCN1CCO [Compound 207],20,7.1,6.5,,,> 10000,501
CNCCc1cc(COc2ccc(-c3c(-c4ccncc4)nn4c3C(=O)N(C)CC4)cc2)ccc1C(C)C [Compound 236],15.8,7.6,7.4,3980,126,,
CC(C)c1ccc(COc2ccc(-c3c(-c4ccncc4)nn4c3C(=O)NCC4)cc2)cc1CN [Compound 86],10,7.2,6.9,> 10000,501,,
CC(CO)c1ccc(COc2ccc(-c3c(-c4ccncc4)nn4c3C(=O)N(CCO)CC4)cc2)cc1 (centres unmarked) [Compound 128],1260,6.6,6.2,,,> 10000,1000
C[Si](C)(C)c1ccc(COc2ccc(-c3c(-c4ccncc4)nn4c3C(=O)NCC4)cc2)cc1 [Compound 232],2000,6.7,6.5,> 10000,2510,,
CC(C)c1ccc(COc2ccc(-c3c(-c4ccncc4)nn4c3C(=O)N(CCCN)CC4)cc2)cc1 [Compound 58],20,7.3,7.0,6310,1000,,
